Data published in patent US11179348B2, “Combination comprising pterostilbene for the treatment of cancer” (FUNDACIÓN UNIVERSIDAD CATÓLICA DE VALENCIA SAN VICENTE …, priority 2015, dated 2021).
Where two headings read alike, the source gives them in different places. Marks after values point to notes of the source that are not given here.

Assays:
A2058 melanoma cell line = test: Effect of anti-melanoma chemotherapy on viability (IC50) of in vitro growing A2058; type: cell-based, human
Experimental: (§1) Human A2058, MeWo and MelJuso melanoma cells, and mouse AtT-20 pituitary corticotroph tumor cells were from the American Type Culture Collection (ATCC). Human HEMa-LP epidermal melanocytes were from Life Technologies (Grand Island, N.Y.). […] Cells were grown in Dulbecco's modified Eagle's medium (DMEM) (Invitrogen, San Diego, Calif.), pH 7.4, supplemented with 10% heat-inactivated FCS (Biochrom KG, Berlin, Germany), 100 units/ml penicillin and 100 μg/ml streptomycin. Cells were plated, at a density of 20,000 cells/cm2, and cultured at 37° C. in a humidified atmosphere with 5% CO2. […] Cell numbers were determined using a Coulter Counter (Coulter Electronic Inc., Miami, Fla.). Cells were allowed to attach for 12 h before any treatment addition.

MeWo melanoma cell line = test: Effect of anti-melanoma chemotherapy on viability (IC50) of in vitro growing MeWo; type: cell-based, human
Experimental: as §1

[1] = test system: MelJuso melanoma cell line; test: Effect of anti-melanoma chemotherapy on viability (IC50) of in vitro growing MelJuso; type: cell-based, human
Experimental: as §1

A2058 melanoma = test: In vivo growth of A2058 melanoma xenografts in nu/nu mice; parameters: species or system human; conditions: A2058-RFP; day 35; EGCG or Curc 50 mg/kg i.v. every 48 h, ± CRC
[2] = test system: glucocorticoid receptors (GR); test: GR content of human cancer cells by [3H]-labeled ligand whole-cell binding assay; conditions: A2058-RFP tumors; day 35; EGCG or Curc 50 mg/kg, ± CRC
corticosterone = test: Plasma corticosterone levels (ELISA) in tumor-bearing mice; type: in vivo; conditions: A2058-bearing mice; day 35; 12 h circadian time; EGCG or Curc 50 mg/kg, ± CRC
Text: (§2) Measurement of ACTH, Corticosterone, and NORA Levels.
(§3) Plasma levels of ACTH (Calbiotech, Inc., Spring Valley, Calif.), corticosterone (Kamiyama Biomedical Co., Seattle, Wash.), and NORA (IBL, Hamburg, Germany) were quantified by ELISA according to the instructions of the suppliers.

ACTH = test: Plasma ACTH levels (ELISA) in tumor-bearing mice; type: in vivo; conditions: A2058-bearing mice; day 35; 6 h circadian time; EGCG or Curc 50 mg/kg, ± CRC
Text: as §2, §3

[3] = for deaths in the treated groups: 50 mg/kg i.v. every 48 h
Experimental: FIG. 12. Effect of (−)-epigallocatechin-3-gallate (EGCG) or curcumin (Curc) treatment on (A) human melanoma (A2058) and (B) pancreatic cancer (AsPC-1) growth in vivo. EGCG or Curc were administered i.v. every 48 h for a period of 5 weeks, starting 1 week after tumor cell inoculation. For this purpose EGCG was dissolved in physiological saline, whereas Curc was dissolved in DMSO.

[4] = test system: AtT-20 pituitary corticotroph tumor cells; test: ACTH production and POMC expression in AtT-20 cells; type: cell-based, mouse; conditions: results not shown
Experimental: FIG. 3. Pterostilbene bioavailability in brain and the pituitary gland, and its effect on ACTH synthesis and POMC expression in AtT-20 cells. […] (B) Effect of pterostilbene on ACTH production by AtT-20 cells in a 24 h-period (measured between 24-48 h or between 48-72 h). […] After the 30 min period, culture flasks were washed out (three times with PBS) and the medium was renewed (controls received identical treatment).
as §3
RT-PCR and detection of mRNA was performed as described above. For Western blotting (see also above) POMC mouse monoclonal antibody (clone 2B2) from Origen (Rockville, Md.) were used.

[5] = test system: A2058 cells isolated from tumor-bearing mice; test: Chemosensitization of cultured A2058 cells isolated from xenografts; type: cell-based, human; conditions: isolated A2058 cells without in vivo Pter treatment
Experimental: FIG. 5. Chemosensitization effect of GSH depletion (A) or sod1-AS (B) in melanoma cells isolated from Pter-treated mice. Melanoma cells were cultured as in FIG. 1C. PAC.PBP (100 ng/ml) was added to the culture flasks 24 h after seeding. […] Data are mean values±SD for 5-6 different experiments (*p<0.01, comparing all experimental conditions vs controls).
FIGS. 18-25. Effect of piperlongumine and I-BET762, as GSH depleting and chemosensitizing agents, in in vitro growing human melanoma, pancreatic, breast, lung, liver, prostate, ovarian, and colorectal cancer cells. Cancer cells, isolated from Pter-treated tumor-bearing mice, were cultured as indicated under Methods. Chemotherapy (0.25 μM PAC.PBP in A2058 melanoma and MDA-MB-231 breast carcinoma cells; 0.125 μM PAC.PBP and 25 μM GTB in AsPC-1 pancreatic cancer cells; 1 μM VRB and 15 μM cisPt in A459 lung carcinoma cells; 0.15 μM DXR in HepG2 hepatocellular carcinoma cells; 15 nM DCT in PC-3 prostate carcinoma cells; 0.15 μM PAC.PBP and 25 μM CarboPt in SK-OV-3 ovarian carcinoma cells; 3 μM 5-FU, 1 μM FA and 0.6 μM IRI in HT-29 colorectal carcinoma cells) was added to the cultured flasks 24 h after seeding. PL (1 μM in A2058 and AsPC-1 cells; 0.5 μM in A549 and HT-29 cells; 0.2 μM in HepG2, PC-3, and SK-OV-3 cells; 0.1 μM in MDA-MB-231 cells) or I-BET762 (0.5 μM in HT-29 cells; 0.2 μM in A2058, AsPC-1, HepG2, PC-3, and SK-OV-3 cells; 0.1 μM in A549 and MDA-MB-231 cells) were added 6 h later. Data are mean values±SD for 4-5 different experiments per cell line (*p<0.05 and **p<0.01, comparing all experimental conditions versus control. PL, piperlongumine; PAC.PBP, paclitaxel protein-bound particles; GTB, gemcitabine; DXR, doxorubicin; VRB, vinorelbin; CisPt, cisplatin; docetaxel, DCT; CarboPt, carboplatin; 5-FU, 5-fluoracil; FA, folinic acid; IRI, irinotecan; 5-FU+FA+IRI=FOLFIRI).
Human A2058, MeWo and MelJuso melanoma cells, and mouse AtT-20 pituitary corticotroph tumor cells were from the American Type Culture Collection (ATCC). Human HEMa-LP epidermal melanocytes were from Life Technologies (Grand Island, N.Y.). Human MDA-MB-231 (triple negative: ER−, PR−, HER2−) and MCF-7 (ER+, PR+, HER2−) breast adenocarcinoma, A549 lung adenocarcinoma (NSCLC), HepG2 hepatocellular carcinoma, LNCaP (AR+) and PC-3 (AR−) prostate adenocarcinoma, SK-OV-3 epithelial ovarian carcinoma, and HT-29 and Caco-2 colorectal carcinoma cells were from the American Type Culture Collection. Cells were grown in Dulbecco's modified Eagle's medium (DMEM) (Invitrogen, San Diego, Calif.), pH 7.4, supplemented with 10% heat-inactivated FCS (Biochrom KG, Berlin, Germany), 100 units/ml penicillin and 100 μg/ml streptomycin. Cells were plated, at a density of 20,000 cells/cm2, and cultured at 37° C. in a humidified atmosphere with 5% CO2. Cells were harvested by incubation for 5 min with 0.05% (w/v) trypsin (Sigma, St. Louis, Mo.) in PBS (10 mM sodium phosphate, 4 mM KCl, 137 mM NaCl), pH 7.4, containing 0.3 mM EDTA, followed by the addition of 10% FCS to inactivate the trypsin. Cell numbers were determined using a Coulter Counter (Coulter Electronic Inc., Miami, Fla.). Cells were allowed to attach for 12 h before any treatment addition. Cellular viability was assessed as previously reported (Mena, S. et al. Clin Cancer Res 13, 2658-2666 (2007)), by measuring trypan blue exclusion and leakage of lactate dehydrogenase activity.
Isolation of Tumor Cells from Mouse Xenografts Using Enzymatic Digestion and a double Ficoll gradient. […]

| IC50 (A2058 melanoma cell line; Homo sapiens) [µM] | IC50 (MeWo melanoma cell line; Homo sapiens) [µM] | IC50 ([1]; Homo sapiens, MEL-JUSO) [µM] | Molecule | other results |
| --- | --- | --- | --- | --- |
|  |  |  | N.N.[Cl][Pt][Cl] [Cisplatin] | IC50 (A2058 melanoma cell line): > 100 µM; IC50 (MeWo melanoma cell line): 44.3 ± 5.43 µM; IC50 [1]: 11.2 ± 1.77 µM |
|  |  |  | COc1cc(/C=C/C(=O)CC(=O)/C=C/c2ccc(O)c(OC)c2)ccc1O [Curc, curcumin, reference compound] | Tumor vol. (A2058 melanoma): 606 ± 126* mm^3; GR number [2]: 71 ± 12 10^3 GR/cell; CRC (corticosterone): 161 ± 17 ng/mL plasma; ACTH (ACTH): 113 ± 25 pg/mL plasma; deaths in the treated groups [3]: did not cause deaths |
| > 100 | > 100 | 56.7 ± 7.46 | CN(C)/N=N/c1[nH]cnc1C(N)=O [Dacarbazine] |  |
|  |  |  | O=C(O[C@@H]1Cc2c(O)cc(O)cc2O[C@@H]1c1cc(O)c(O)c(O)c1)c1cc(O)c(O)c(O)c1 [EGCG, (−)-epigallocatechin-3-gallate, reference compound] | Tumor vol. (A2058 melanoma): 894 ± 137 mm^3; GR number [2]: 77 ± 7 10^3 GR/cell; CRC (corticosterone): 243 ± 31 ng/mL plasma; ACTH (ACTH): 215 ± 36 pg/mL plasma; deaths in the treated groups [3]: did not cause deaths; deaths in the tumor-bearing groups ([3]; 60 mg/kg i.v. every 48 h): 45% |
| > 100 | > 100 | 1.35 ± 0.34 | CN(Cc1cnc2nc(N)nc(N)c2n1)c1ccc(C(=O)N[C@@H](CCC(=O)O)C(=O)O)cc1 [Methotrexate] |  |
| 0.35 ± 0.1 | 11.1 ± 2.15 | 0.13 ± 0.03 | CC(=O)O[C@H]1C(=O)[C@@]2(C)[C@H]([C@H](OC(=O)c3ccccc3)[C@]3(O)C[C@H](OC(=O)[C@H](O)[C@@H](NC(=O)c4ccccc4)c4ccccc4)C(C)=C1C3(C)C)[C@]1(OC(C)=O)CO[C@@H]1C[C@@H]2O [Paclitaxel, (2α,4α,5β,7β,10β,13α)-4,10-Bis(acetyloxy)-13-{[(2R,3S)-3-(benzoylamino)-2-hydroxy-3-phenylpropanoyl]oxy}-1,7-dihydroxy-9-oxo-5,20-epoxytax-11-en-2-yl benzoate] |  |
|  |  |  | COc1cc(C=Cc2ccc(OC3OC(C(=O)O)C(O)C(O)C3O)cc2)cc(OC)c1 [Pter-G, Pterostilbene 4′-O-D-glucuronide] | decrease of ACTH production in AtT-20 cells by pterostilbene conjugates [4]: None |
|  |  |  | COc1cc(C=Cc2ccc(OS(=O)(=O)O)cc2)cc(OC)c1 [Pter-S, pterostilbene-4′-sulfate] | decrease of ACTH production in AtT-20 cells by pterostilbene conjugates [4]: None |
| > 100 | > 100 | > 100 | Cn1nnc2c(C(N)=O)ncn2c1=O [Temozolomide] |  |
| > 100 | > 100 | 66.2 ± 6.39 | CCCC(CCC)C(=O)O [Valproic acid] |  |
| 7.65 ± 1.35 | 14.5 ± 2.17 | 0.19 ± 0.04 | CC[C@]1(O)C[C@@H]2CN(CCc3c([nH]c4ccccc34)[C@@](C(=O)OC)(c3cc4c(cc3OC)N(C)[C@H]3[C@@](O)(C(=O)OC)[C@H](OC(C)=O)[C@]5(CC)C=CCN6CC[C@]43[C@@H]65)C2)C1 [Vinblastine] |  |
| 6.19 ± 2.06 | 12.5 ± 3.04 | 0.15 ± 0.02 | CC[C@]1(O)C[C@H]2CN(CCc3c([nH]c4ccccc34)[C@@](C(=O)OC)(c3cc4c(cc3OC)N(C=O)[C@H]3[C@@](O)(C(=O)OC)[C@H](OC(C)=O)[C@]5(CC)C=CCN6CC[C@]43[C@@H]65)C2)C1 [Vincristine] |  |
|  |  |  | Arsenate | IC50 (A2058 melanoma cell line): > 100 µM; IC50 (MeWo melanoma cell line): 94.4 ± 12.4 µM; IC50 [1]: 65.5 ± 5.19 µM |
|  |  |  | Diethylmaleate [DEM] | Cell number ([5]; culture time 24 h): 0.49 ± 0.10 ×10^6; Cell number ([5]; culture time 36 h): 0.51 ± 0.05 ×10^6; Cell number ([5]; culture time 48 h): 0.56 ± 0.08 ×10^6; Cell number ([5]; culture time 72 h): 0.67 ± 0.06* ×10^6 |

| Molecule | IC50 (A2058 melanoma cell line; Homo sapiens) [µM] | IC50 (MeWo melanoma cell line; Homo sapiens) [µM] | IC50 ([1]; Homo sapiens, MEL-JUSO) [µM] | other results |
| --- | --- | --- | --- | --- |
| O=NN(CCCl)C(=O)NCCCl [BCNU, Carmustine] | > 100 | > 100 | 0.17 ± 0.06 |  |
| COc1cccc2c1C(=O)c1c(O)c3c(c(O)c1C2=O)C[C@@](O)(C(C)=O)C[C@@H]3O[C@H]1C[C@H](N)[C@H](O)[C@H](C)O1 [Daunorubicin] | 2.4 ± 0.73 | 2.61 ± 0.51 | 1.44 ± 0.35 |  |
